The values below come from publication PMC12300041, “Tricyclic Isatin Derivatives as Anti-Inflammatory Compounds with High Kinase Binding Affinity” (Molecules, 2025).

By inhibition is commonly meant the percentage by which the read-out fell short of the control.

What all share (assay): KINOMEscan
The target in assay [1] is T1, BMX (Homo sapiens, UniProt P51813).
T1 construct: purchased Eurofins DiscoverX KINOMEscan
The assay is classed as binding. In outline: (§1)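 Competition binding run for 1 h at room temperature; kinase left unbound by compound was captured on an immobilized affinity ligand and quantified by qPCR. Kd was taken from a 12-point half-log dilution series with a 33 μM top concentration.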

Assay [2] has as its target T2, ABL2 (Homo sapiens, UniProt P42684).
T2 construct: purchased Eurofins DiscoverX KINOMEscan
The assay is classed as binding. In outline: as §1

Assay [3] deals with T3, CAMK1D (Homo sapiens, UniProt Q8IU85).
T3 construct: purchased Eurofins DiscoverX KINOMEscan
T3 sequence (Q8IU85 whole entry): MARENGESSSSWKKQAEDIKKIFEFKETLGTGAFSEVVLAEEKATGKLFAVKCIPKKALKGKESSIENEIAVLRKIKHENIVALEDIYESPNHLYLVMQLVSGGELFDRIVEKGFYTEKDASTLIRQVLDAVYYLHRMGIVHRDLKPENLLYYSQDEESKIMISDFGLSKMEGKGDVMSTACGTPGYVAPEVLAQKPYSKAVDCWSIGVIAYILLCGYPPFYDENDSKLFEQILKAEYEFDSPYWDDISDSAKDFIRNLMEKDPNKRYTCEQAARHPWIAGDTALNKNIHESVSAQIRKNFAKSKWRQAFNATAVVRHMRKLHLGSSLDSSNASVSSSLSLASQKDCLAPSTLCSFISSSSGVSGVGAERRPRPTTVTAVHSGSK
The assay is classed as binding. In outline:
as §1

For assay [4], the target named is T4, TAK1 (Homo sapiens, UniProt O43318).
T4 construct: purchased Eurofins DiscoverX KINOMEscan
T4 sequence (O43318 whole entry): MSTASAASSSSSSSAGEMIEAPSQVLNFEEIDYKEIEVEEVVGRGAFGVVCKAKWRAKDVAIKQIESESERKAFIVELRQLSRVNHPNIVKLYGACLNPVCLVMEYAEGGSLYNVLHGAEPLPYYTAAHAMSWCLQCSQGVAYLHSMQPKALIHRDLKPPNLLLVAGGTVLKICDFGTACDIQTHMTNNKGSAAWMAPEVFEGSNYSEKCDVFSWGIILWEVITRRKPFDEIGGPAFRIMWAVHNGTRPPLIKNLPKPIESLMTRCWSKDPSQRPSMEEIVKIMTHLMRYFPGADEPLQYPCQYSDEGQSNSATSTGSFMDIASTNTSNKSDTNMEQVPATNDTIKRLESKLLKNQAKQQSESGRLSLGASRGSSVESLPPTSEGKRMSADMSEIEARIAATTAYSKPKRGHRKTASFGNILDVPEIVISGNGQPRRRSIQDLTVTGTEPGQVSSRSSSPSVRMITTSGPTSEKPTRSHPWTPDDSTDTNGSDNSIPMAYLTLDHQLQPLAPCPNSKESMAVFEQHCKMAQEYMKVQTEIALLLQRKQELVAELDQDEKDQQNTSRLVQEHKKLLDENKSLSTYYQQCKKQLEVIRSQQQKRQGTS
Type of assay: binding. The gist of the method: as §1

Assay [5] deals with T5, GAK (Homo sapiens, UniProt O14976).
T5 construct: purchased Eurofins DiscoverX KINOMEscan
T5 sequence (O14976 whole entry): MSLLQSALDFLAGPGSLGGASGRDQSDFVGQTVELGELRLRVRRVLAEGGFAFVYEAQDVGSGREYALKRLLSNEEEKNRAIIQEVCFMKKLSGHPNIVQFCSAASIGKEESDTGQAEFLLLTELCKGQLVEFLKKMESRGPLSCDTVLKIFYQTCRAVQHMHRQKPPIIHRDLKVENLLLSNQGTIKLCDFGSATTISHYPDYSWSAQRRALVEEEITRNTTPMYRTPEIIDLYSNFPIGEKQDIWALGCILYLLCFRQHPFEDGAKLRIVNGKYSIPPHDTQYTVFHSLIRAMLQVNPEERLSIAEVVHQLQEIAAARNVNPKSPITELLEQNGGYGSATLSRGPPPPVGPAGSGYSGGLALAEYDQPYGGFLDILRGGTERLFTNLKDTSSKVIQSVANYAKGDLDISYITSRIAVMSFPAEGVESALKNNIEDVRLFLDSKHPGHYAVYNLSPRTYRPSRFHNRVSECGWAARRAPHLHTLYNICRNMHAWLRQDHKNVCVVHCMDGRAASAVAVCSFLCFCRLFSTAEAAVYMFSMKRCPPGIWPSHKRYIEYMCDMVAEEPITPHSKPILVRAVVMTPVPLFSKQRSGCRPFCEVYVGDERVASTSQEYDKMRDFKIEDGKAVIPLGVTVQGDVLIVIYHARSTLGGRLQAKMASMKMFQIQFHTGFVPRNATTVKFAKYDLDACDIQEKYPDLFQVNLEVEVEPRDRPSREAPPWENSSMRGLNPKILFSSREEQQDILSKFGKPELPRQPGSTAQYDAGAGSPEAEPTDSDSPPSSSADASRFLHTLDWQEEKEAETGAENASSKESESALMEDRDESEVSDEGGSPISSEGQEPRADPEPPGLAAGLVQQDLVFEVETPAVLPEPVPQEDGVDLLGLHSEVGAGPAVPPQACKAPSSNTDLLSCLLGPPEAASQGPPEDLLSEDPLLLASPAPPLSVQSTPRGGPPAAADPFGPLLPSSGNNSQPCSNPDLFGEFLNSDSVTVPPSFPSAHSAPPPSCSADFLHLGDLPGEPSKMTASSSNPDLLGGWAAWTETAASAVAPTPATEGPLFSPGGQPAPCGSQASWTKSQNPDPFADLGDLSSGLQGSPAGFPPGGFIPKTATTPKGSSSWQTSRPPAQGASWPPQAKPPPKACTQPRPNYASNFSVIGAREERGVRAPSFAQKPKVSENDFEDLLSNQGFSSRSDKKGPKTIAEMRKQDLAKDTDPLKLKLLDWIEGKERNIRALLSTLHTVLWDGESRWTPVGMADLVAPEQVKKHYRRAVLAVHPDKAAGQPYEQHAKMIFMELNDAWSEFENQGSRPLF
The assay is classed as binding. In outline: as §1

Assay [6] addresses T6, WEE1 (Homo sapiens, UniProt P30291).
T6 construct: purchased Eurofins DiscoverX KINOMEscan
Type of assay: binding. The gist of the method: as §1

Assay [7] addresses T7, NEK2 (Homo sapiens, UniProt P51955).
T7 construct: purchased Eurofins DiscoverX KINOMEscan
The assay is classed as binding. The gist of the method:
as §1

The target of assay [8] is T8, RPS6KA5 (Kin. Dom.1-N-term.) (Homo sapiens, UniProt O75582).
T8 construct: RPS6KA5 (Kin. Dom.1-N-term.); purchased Eurofins DiscoverX KINOMEscan
T8 sequence (O75582 1-387 limits assumed): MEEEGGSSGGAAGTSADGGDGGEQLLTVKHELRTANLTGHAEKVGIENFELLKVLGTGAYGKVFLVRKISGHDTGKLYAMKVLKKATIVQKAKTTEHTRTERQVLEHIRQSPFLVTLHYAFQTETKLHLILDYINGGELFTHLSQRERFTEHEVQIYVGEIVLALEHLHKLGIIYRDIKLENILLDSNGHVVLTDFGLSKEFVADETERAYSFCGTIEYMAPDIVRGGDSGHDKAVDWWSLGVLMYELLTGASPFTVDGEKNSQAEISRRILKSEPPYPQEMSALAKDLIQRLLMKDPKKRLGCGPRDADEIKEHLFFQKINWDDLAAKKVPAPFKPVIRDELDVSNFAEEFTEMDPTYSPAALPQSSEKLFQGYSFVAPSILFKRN
The assay is classed as binding. In outline: as §1

Assay [9] deals with T9, AXL (Homo sapiens, UniProt P30530).
T9 construct: purchased Eurofins DiscoverX KINOMEscan
The assay is classed as binding. In outline:
as §1

Assay [10] deals with FLT3 (ITD, D835V). Type of assay: binding, human. The settings on record: 10 μM. The protocol: (§2) Kinase profiling was performed by KINOMEscan (Eurofins Pharma Discovery, San Diego, CA, USA), using a panel of 423 protein kinases, as described previously. Compounds were submitted for dissociation constant (Kd) determination toward several target kinases using KINOMEscan. […] Binding reactions were performed at room temperature for 1 h, and the fraction of kinase not bound to the test compound was determined by capture with an immobilized affinity ligand and quantified by quantitative polymerase chain reaction. The primary screening at fixed concentrations of the compound was performed in duplicate. For dissociation constant Kd determination, a 12-point half-log dilution series (a maximum concentration of 33 μM) was used.

Assay [11] has as its system FLT3 (ITD). Type of assay: binding, human. The settings on record: 10 μM. The protocol: as §2
The test system of assay [12] is FLT3 (ITD, F691L). The assay is classed as binding, human. The settings on record: 10 μM. On the procedure: as §2
Assay [13] relates to EGFR (L747-T751 del, Sins). Type of assay: binding, human. As to conditions: 10 μM. The protocol: as §2

T6 sequence (P30291 whole entry): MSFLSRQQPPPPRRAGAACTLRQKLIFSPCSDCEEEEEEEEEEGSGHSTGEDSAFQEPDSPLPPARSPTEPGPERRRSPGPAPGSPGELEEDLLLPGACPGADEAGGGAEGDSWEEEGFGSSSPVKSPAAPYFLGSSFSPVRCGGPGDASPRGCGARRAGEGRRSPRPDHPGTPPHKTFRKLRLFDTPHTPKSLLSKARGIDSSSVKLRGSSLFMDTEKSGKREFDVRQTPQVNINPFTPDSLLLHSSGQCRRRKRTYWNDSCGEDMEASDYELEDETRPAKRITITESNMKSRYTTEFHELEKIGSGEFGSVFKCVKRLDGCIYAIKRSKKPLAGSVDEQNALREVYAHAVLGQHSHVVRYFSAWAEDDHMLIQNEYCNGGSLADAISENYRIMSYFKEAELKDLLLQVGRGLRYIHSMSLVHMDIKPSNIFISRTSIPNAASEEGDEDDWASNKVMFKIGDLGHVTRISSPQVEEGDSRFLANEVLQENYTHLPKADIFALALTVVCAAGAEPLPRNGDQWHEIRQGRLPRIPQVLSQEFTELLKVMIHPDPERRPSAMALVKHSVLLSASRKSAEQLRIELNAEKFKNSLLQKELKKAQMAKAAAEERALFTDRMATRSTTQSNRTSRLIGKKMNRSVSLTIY
T2 sequence (P42684 whole entry): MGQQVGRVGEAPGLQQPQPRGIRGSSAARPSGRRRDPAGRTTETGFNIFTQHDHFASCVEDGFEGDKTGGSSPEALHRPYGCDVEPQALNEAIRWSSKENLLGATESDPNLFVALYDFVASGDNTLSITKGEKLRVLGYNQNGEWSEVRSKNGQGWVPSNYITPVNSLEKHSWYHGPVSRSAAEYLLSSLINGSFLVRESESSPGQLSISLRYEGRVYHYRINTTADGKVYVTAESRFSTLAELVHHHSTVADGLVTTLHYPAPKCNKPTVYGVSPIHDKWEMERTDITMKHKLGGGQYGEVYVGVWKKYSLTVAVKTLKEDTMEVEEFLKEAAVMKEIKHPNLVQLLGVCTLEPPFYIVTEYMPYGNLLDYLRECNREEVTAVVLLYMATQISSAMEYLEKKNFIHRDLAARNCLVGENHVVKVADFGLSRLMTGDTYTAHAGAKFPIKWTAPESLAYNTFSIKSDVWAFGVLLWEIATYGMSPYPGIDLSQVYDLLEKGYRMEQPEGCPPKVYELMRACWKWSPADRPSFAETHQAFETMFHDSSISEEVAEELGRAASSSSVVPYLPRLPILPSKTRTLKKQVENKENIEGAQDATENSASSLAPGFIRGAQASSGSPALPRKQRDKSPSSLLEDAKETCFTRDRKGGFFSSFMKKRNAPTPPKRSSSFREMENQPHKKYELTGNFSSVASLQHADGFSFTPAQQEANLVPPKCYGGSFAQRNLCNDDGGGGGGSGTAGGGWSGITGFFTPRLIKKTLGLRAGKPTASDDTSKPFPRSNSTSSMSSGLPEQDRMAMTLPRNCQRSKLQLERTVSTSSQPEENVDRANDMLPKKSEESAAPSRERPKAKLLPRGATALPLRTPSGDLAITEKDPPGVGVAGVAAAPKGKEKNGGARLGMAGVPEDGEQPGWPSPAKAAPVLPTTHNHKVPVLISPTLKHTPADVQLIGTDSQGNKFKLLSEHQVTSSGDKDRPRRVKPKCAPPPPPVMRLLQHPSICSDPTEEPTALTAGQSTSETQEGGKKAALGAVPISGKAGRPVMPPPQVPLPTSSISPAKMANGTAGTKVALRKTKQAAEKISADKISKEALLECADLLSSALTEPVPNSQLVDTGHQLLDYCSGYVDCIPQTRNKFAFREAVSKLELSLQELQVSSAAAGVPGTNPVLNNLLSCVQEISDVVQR
T7 sequence (P51955 whole entry): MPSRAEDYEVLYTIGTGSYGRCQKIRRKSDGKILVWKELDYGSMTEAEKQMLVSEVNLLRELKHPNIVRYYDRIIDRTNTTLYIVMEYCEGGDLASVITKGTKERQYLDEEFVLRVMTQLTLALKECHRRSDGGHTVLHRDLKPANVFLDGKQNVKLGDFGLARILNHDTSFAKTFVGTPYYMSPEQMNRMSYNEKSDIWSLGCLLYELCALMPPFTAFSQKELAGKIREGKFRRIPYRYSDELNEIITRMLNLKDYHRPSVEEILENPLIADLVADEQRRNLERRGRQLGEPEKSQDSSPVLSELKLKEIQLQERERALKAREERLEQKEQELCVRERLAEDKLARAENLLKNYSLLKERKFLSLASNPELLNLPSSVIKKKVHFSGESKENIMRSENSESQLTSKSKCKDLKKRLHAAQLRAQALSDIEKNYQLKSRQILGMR

As to `O=C1Nc2c(cc([N+](=O)[O-])c3c2CCCC3)C1=NO` [Compound 5d, 3-(Hydroxyimino)-5-nitro-1,3,6,7,8,9-hexahydro-2H-benzo[g]indol-2-one], the inhibition at 10 µM in [1] was 13%; in assay [2], 2%; in [3], 65%; in [4], 67%; in assay [5], 49%; in assay [6], 16%. Moreover, the inhibition at 10 µM in assay [7] stood at 16%; in assay [8] it was 4%; in assay [9] it was 17%. Moreover, the “Inhib. (%)” value was 65% in [10], 29% in assay [11], 66% in [12] and 22% in assay [13].
